Assay results: US8871492B2, “Anti-dementia substance from Hericium erinaceum and method of extraction” (priority 2008, dated 2014)
Where “and” joins values, the source holds several entries; their conditions need not be identical. Identical values can stand only once.

System: Aβ1-40-induced AD rats
Test: Morris Water Maze Test on Aβ1-40-induced AD rats
Format: in vivo, Sprague-Dawley male rats
Details: for Arrival Time of Platform: Donepezil 1 mg/kg by stomach tube once per day
Procedure: The control group was injected with 5 μL of saline. […] From the fourth week after the administration, learning and memory-related behavior was assessed using the Morris Water Maze Test on ten rats arbitrarily-chosen from each group once a day for one week (from day 1 to day 6 the time to arrive at the platform is measured, and on day 7 the platform is removed and the frequency to cross (pass by) the platform location is counted). After completing the behavioral test, the rats were sacrificed. The cerebral tissues separated from half of the rats of each group were used for pathological examination, and the olfactory bulb, hippocampus, locus ceruleus, and cerebral cortex from another half were used to determine the NGF content with enzyme-linked immunosorbent assay (ELISA).

## COc1cc2c(cc1OC)C(=O)C(CC1CCN(Cc3ccccc3)CC1)C2 (centres unmarked) [Donepezil]
Day 1, n = 10
  Arrival Time of Platform: 77.03 ± 29.92 s
Day 2, n = 10
  Arrival Time of Platform: 39.10 ± 26.36 s
Day 3, n = 10
  Arrival Time of Platform: 34.98 ± 23.42 s
Day 4, n = 10
  Arrival Time of Platform: 31.10 ± 23.26 s
Day 5, n = 10
  Arrival Time of Platform: 30.00 ± 21.11 s
Day 6, n = 10
  Arrival Time of Platform: 28.43 ± 23.45 s
Day 7, individual rats No. 1-10, Donepezil 1 mg/kg
  Frequencies of crossing platform location within two minutes: 14 and 11 and 22 and 19 and 10 (2×) and 13 and 8 and 6 and 7
Day 7, n = 10, Donepezil 1 mg/kg
  Frequencies of crossing platform location within two minutes, Mean ± SD: 12.00 ± 5.16
